In US9585382B2, “Composition comprising a pesticide and an acetal solvent” (priority 2011, dated 2017):
In brackets after ≈: the same amount, converted by molar mass. Blank lines part the entries; values can stand above or below the molecule they belong to.

How the values were obtained:
[1] = Solubility of pesticides in acetal and aromatic solvents at 20° C.; conditions: for solubility: 20 °C, organic solvent or mixture
Protocol: A) Pyraclostrobin was added at 20° C. to benzaldehyde dimethyl acetal or p-anisaldehyde dimethyl acetal, with stirring.

Viscosity = format: physicochemical; conditions: 20° C.
[2] = Flash point (DIN 53213-1); format: physicochemical; conditions: measured as specified in DIN 53213-1
[3] = Protocol: The solubility of benzaldehyde dimethyl acetal or p-anisaldehyde dimethyl acetal in water at 20° C. was analyzed.
[4] = EU directive 67/548/EEC, 1999/45/EC or 88/379/EEC; cited from earlier work

SMILES: COC(=O)N(OC)c1ccccc1COc1ccn(-c2ccc(Cl)cc2)n1 [Pyraclostrobin, reference compound]
solubility in benzaldehyde dimethyl acetal ([1]; 20° C., with stirring, solvent benzaldehyde dimethyl acetal (not inventive)): at least 50 % by weight
solubility in p-anisaldehyde dimethyl acetal ([1]; 20° C., with stirring, solvent p-anisaldehyde dimethyl acetal): at least 50 % by weight

viscosity (Viscosity): 5.5 mPas
flash point [2]: 114 °C
solubility in water [3]: ≤ 0.1 % by weight
SMILES: COc1ccc(C(OC)OC)cc1 [p-Anisaldehyde dimethyl acetal]
EU R phrase [4]: without R phrase
EU hazard classification [4]: without classification

solubility ([1]; maximum solubility in Solvesso 150 ND): 19 mg/mL (≈ 46.1 mM)
solubility ([1]; maximum solubility in Solvesso 200 ND): 63 mg/mL (≈ 153 mM)
solubility ([1]; maximum solubility in p-anisaldehyde dimethyl acetal): 214 mg/mL (≈ 519 mM)
SMILES: C#CCN1C(=O)C(F)(F)Oc2cc(F)c(-n3c(=O)n(C)c(=S)n(C)c3=O)cc21 [1,5-dimethyl-6-thioxo-3-(2,2,7-trifluoro-3-oxo-4-(prop-2-ynyl)-3,4-dihydro-2H-benzo[b][1,4]oxazin-6-yl)-1,3,5-triazinan-2,4-dione]

SMILES: COC(OC)c1ccccc1 [Benzaldehyde dimethyl acetal, reference compound]
flash point [2]: 69 °C
EU R phrase [4]: R22—harmful if swallowed
EU hazard classification [4]: Xn—harmful
